Data: US20240124483A1, “Methods for the Treatment of Fibrotic Disease” (SHY Therapeutics, LLC, priority 2021, published 2024)

Assays:
AKT phosphorylation = experiment: Western AKT Cell-Based Phosphorylation Assay; details: Homo sapiens, PANC-1, 6 hours, EGF 1.5 ng/ml, read-out: % inh of AKT phosphorylation in PANC-1
Procedure: (§1) Human tumor-derived pancreatic cancer cell line Panc-1 was purchased from American Type Culture Collection and grown in complete DMEM-High Glucose supplemented with penicillin (100 U/mL), streptomycin (100 μg/mL), and 10% heat-inactivated FBS at 37° C. in a humidified incubator with 5% CO2.
(§2) Method: Cells were plated at 350000 cells/well density in a 12-well plate, allowed 3 hours to adhere to the plate, then starved in the appropriate medium in the presence of 0.5% FBS overnight. The small molecules to be tested were added to the cells in the final concentration of 10 μM in the presence of 0.3% DMSO for 6 hours incubation at 37° C. Next, cells were stimulated with 1.5 ng/ml EGF for 15 minutes then cells were lysed with lysis buffer containing 1% Triton X-100, EDTA, and Halt™ Protease & Phosphatase Inhibitor Cocktail (Thermo Scientific). Protein concentration was assessed by BCA protein assay (Thermo Scientific). Phosphorylation level of Akt was determined by western blot.
(§3) Western blot protocol: Equal amounts of protein (15-50 μg) were separated by SDS-PAGE and transferred to nitrocellulose membranes (Invitrogen by Thermo Fisher Scientific). The membrane was stained with Ponceau S Stain (Boston BioProducts) to verify uniform protein loading. Membranes were blocked with 10% milk and phosphorylation levels of Akt were assessed by incubating overnight at 4° C. with anti-phospho-Akt (Ser473) antibody (Cell Signaling) followed by HRP-conjugated secondary antibody (Jackson Immunoresearch, West Grove, PA). Bands were incubated in Amersham ECL Prime Western Blotting Detection Reagent (GE Healthcare) and visualized using the ChemiDoc MP imaging system (Bio-Rad).

ERK1/2 phosphorylation = experiment: Western ERK1/2 Cell-Based Phosphorylation Assay; details: Homo sapiens, PANC-1, 6 hours, EGF 1.5 ng/ml, read-out: % inh of ERK1/2 phosphorylation in PANC-1
Procedure: as §1, with “Cell lines: Human” for “Human”, “Glucose,” for “Glucose”
as §2, with “C. For IC50 value determination, serial dilutions of compounds were added to cells under the same conditions.” for “C.”, “ERK1/2” for “Akt”
as §3, with “ERK1/2” for “Akt”, “anti-phospho-p44/42 (Thr202/Tyr204)” for “anti-phospho-Akt (Ser473)”

| Structure (SMILES) | inhibition at 10 µM (AKT phosphorylation) [%] | inhibition at 10 µM (ERK1/2 phosphorylation) [%] |
| --- | --- | --- |
| COC1CCCN(c2nc(-c3nccn3C)nc3sc(-c4ccn(C(C)C)n4)c(C)c23)C1 (racemic) [Compound 14, rac-6-(1-Isopropyl-1H-pyrazol-3-yl)-4-(3-methoxypiperidin-1-yl)-5-methyl-2-(1-methyl-1H-imidazol-2-yl)thieno[2,3-d]pyrimidine] | 46 to 75 | 76 to 100 |
| COCC1CN(c2nc(-c3nccn3C)nc3sc(-c4ccn(C(C)C)n4)c(C)c23)CCO1 (racemic) [Compound 15, 4-(6-(1-Isopropyl-1H-pyrazol-3-yl)-5-methyl-2-(1-methyl-1H-imidazol-2-yl)thieno[2,3-d]pyrimidin-4-yl)-2-(methoxymethyl)morpholine] | 76 to 100 | 46 to 75 |
| COCCO[C@H]1CC[C@@H](Nc2nc(-c3nccn3C)nc3sc(-c4ccn(C(C)C)n4)c(C)c23)C1 (racemic) [Compound 20, rac-6-(1-Isopropyl-1H-pyrazol-3-yl)-N-((1R,3S)-3-(2-methoxyethoxy)cyclopentyl)-5-methyl-2-(1-methyl-1H-imidazol-2-yl)thieno[2,3-d]pyrimidin-4-amine] | 26 to 45 | 46 to 75 |
| Cc1c(-c2ccn(C(C)C)n2)sc2nc(-c3nccn3C)nc(NCC3COCCN3C)c12 (racemic) [Compound 24, rac-6-(1-Isopropyl-1H-pyrazol-3-yl)-5-methyl-2-(1-methyl-1H-imidazol-2-yl)-N-((4-methylmorpholin-3-yl)methyl)thieno[2,3-d]pyrimidin-4-amine] | 0 | 0 |
| Cc1c(-c2ccn(C(C)C)n2)sc2nc(-c3nccn3C)nc(NCC3CN(C)CCO3)c12 (racemic) [Compound 25, rac-6-(1-Isopropyl-1H-pyrazol-3-yl)-5-methyl-2-(1-methyl-1H-imidazol-2-yl)-N-((4-methylmorpholin-2-yl)methyl)thieno[2,3-d]pyrimidin-4-amine] | 1 to 25 | 0 |
| Cc1c(-c2ccn(C(C)C)n2)sc2nc(-c3nccn3C)nc(NCC3CCCO3)c12 (racemic) [Compound 26, rac-6-(1-Isopropyl-1H-pyrazol-3-yl)-5-methyl-2-(1-methyl-1H-imidazol-2-yl)-N-((tetrahydrofuran-2-yl)methyl)thieno[2,3-d]pyrimidin-4-amine] | 0 | 0 |
| COCC1(OC)CCN(c2nc(-c3nccn3C)nc3sc(-c4ccn(C(C)C)n4)c(C)c23)C1 (racemic) [Compound 27, rac-6-(1-Isopropyl-1H-pyrazol-3-yl)-4-(3-methoxy-3-(methoxymethyl)pyrrolidin-1-yl)-5-methyl-2-(1-methyl-1H-imidazol-2-yl)thieno[2,3-d]pyrimidine] | 26 to 45 | 1 to 25 |
| COCCn1ccc(-c2sc3nc(-c4nccn4C)nc(NC[C@H]4CC[C@H]4COC)c3c2C)n1 (racemic) [Compound 38, rac-6-(1-(2-Methoxyethyl)-1H-pyrazol-3-yl)-N-(((1S,2R)-2-(methoxymethyl)cyclobutyl)methyl)-5-methyl-2-(1-methyl-1H-imidazol-2-yl)thieno[2,3-d]pyrimidin-4-amine] | 0 | 46 to 75 |
| COCCn1ccc(-c2sc3nc(-c4nccn4C)nc(N[C@@H]4CC[C@H](OC)C4)c3c2C)n1 (racemic) [Compound 39, rac-N-((1R,3S)-3-Methoxycyclopentyl)-6-(1-(2-methoxyethyl)-1H-pyrazol-3-yl)-5-methyl-2-(1-methyl-1H-imidazol-2-yl)thieno[2,3-d]pyrimidin-4-amine] | 76 to 100 | 1 to 25 |
| COc1cccc(-c2sc3nc(-c4nccn4C)nc(N[C@@H]4CC[C@@H](OC)C4)c3c2-c2ccccc2)c1F (racemic) [Compound 41, 6-(2-Fluoro-3-methoxyphenyl)-N-((1R,3R)-3-methoxycyclopentyl)-2-(1-methyl-1H-imidazol-2-yl)-5-phenylthieno[2,3-d]pyrimidin-4-amine] | 76 to 100 | 76 to 100 |
| COc1cccc(-c2sc3nc(-c4nccn4C)nc(N[C@@H]4CC[C@@H](OC)C4)c3c2C)c1F (racemic) [Compound 43, rac-6-(2-Fluoro-3-methoxyphenyl)-N-((1R,3R)-3-methoxycyclopentyl)-5-methyl-2-(1-methyl-1H-imidazol-2-yl)thieno[2,3-d]pyrimidin-4-amine] | 0 | 46 to 75 |
| CO[C@H]1C[C@H](CNc2nc(-c3nccn3C)nc3sc(-c4ccn(C(C)C)n4)c(C)c23)C1 [Compound 16, 6-(1-Isopropyl-1H-pyrazol-3-yl)-N-(((1r,3r)-3-methoxycyclobutyl)methyl)-5-methyl-2-(1-methyl-1H-imidazol-2-yl)thieno[2,3-d]pyrimidin-4-amine] | 0 | 76 to 100 |
| COc1cccc(Nc2nc(-c3nccn3C)nc3sc(-c4ccn(C(C)C)n4)c(C)c23)c1 [Compound 17, 6-(1-Isopropyl-1H-pyrazol-3-yl)-N-(3-methoxyphenyl)-5-methyl-2-(1-methyl-1H-imidazol-2-yl)thieno[2,3-d]pyrimidin-4-amine] | 46 to 75 | 76 to 100 |
| COc1cccc(Nc2nc(-c3nccn3C)nc3sc(-c4ccn(C(C)C)n4)c(C)c23)n1 [Compound 18, 6-(1-Isopropyl-1H-pyrazol-3-yl)-N-(6-methoxypyridin-2-yl)-5-methyl-2-(1-methyl-1H-imidazol-2-yl)thieno[2,3-d]pyrimidin-4-amine] | 26 to 45 | 0 |
| COc1cc(Nc2nc(-c3nccn3C)nc3sc(-c4ccn(C(C)C)n4)c(C)c23)ncn1 [Compound 19, 6-(1-Isopropyl-1H-pyrazol-3-yl)-N-(6-methoxypyrimidin-4-yl)-5-methyl-2-(1-methyl-1H-imidazol-2-yl)thieno[2,3-d]pyrimidin-4-amine] | 76 to 100 | 76 to 100 |
| COCCOCCNc1nc(-c2nccn2C)nc2sc(-c3ccn(C(C)C)n3)c(C)c12 [Compound 21, 6-(1-Isopropyl-1H-pyrazol-3-yl)-N-(2-(2-methoxyethoxy)ethyl)-5-methyl-2-(1-methyl-1H-imidazol-2-yl)thieno[2,3-d]pyrimidin-4-amine] | 1 to 25 | 0 |
| Cc1c(-c2ccn(C(C)C)n2)sc2nc(-c3nccn3C)nc(NCCN3CCOCC3)c12 [Compound 22, 6-(1-Isopropyl-1H-pyrazol-3-yl)-5-methyl-2-(1-methyl-1H-imidazol-2-yl)-N-(2-morpholinoethyl)thieno[2,3-d]pyrimidin-4-amine] | 1 to 25 | 0 |
| Cc1c(-c2ccn(C(C)C)n2)sc2nc(-c3nccn3C)nc(NCCN3CCS(=O)(=O)CC3)c12 [Compound 23, 4-(2-((6-(1-Isopropyl-1H-pyrazol-3-yl)-5-methyl-2-(1-methyl-1H-imidazol-2-yl)thieno[2,3-d]pyrimidin-4-yl)amino)ethyl)thiomorpholine 1,1-dioxide] | 0 | 0 |
| CO[C@H]1CNC[C@@H](Nc2nc(-c3nccn3C)nc3sc(-c4ccn(C(C)C)n4)cc23)C1 [Compound 28, 6-(1-Isopropyl-1H-pyrazol-3-yl)-N-((3S,5R)-5-methoxypiperidin-3-yl)-2-(1-methyl-1H-imidazol-2-yl)thieno[2,3-d]pyrimidin-4-amine] | 26 to 45 | 46 to 75 |
| COCCn1c(-c2nccn2C)nc2sc(-c3ccn(C(C)C)n3)c(C)c2c1=O [Compound 29, 6-(1-Isopropyl-1H-pyrazol-3-yl)-3-(2-methoxyethyl)-5-methyl-2-(1-methyl-1H-imidazol-2-yl)thieno[2,3-d]pyrimidin-4(3H)-one] | 0 | 0 |
